Assay results reported in the supplement of paper PMC11616607.

Legend:
Experiment in all cases: drug sensitivity score (DSS) from 5-point dose-response viability curve (DSS (area-under-curve based score)); higher = more sensitive (stronger growth inhibition or killing); extreme values may be limits of the assay
Conditions in all cases: exposure time: 72 h; concentration range: 5 concentrations over 10,000-fold range
[1] = tested on: OVCAR4
Summary of the method: (§1)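 Drug sensitivity scores were calculated in Breeze software for each cell line and drug pair; higher scores indicate more sensitivity. A score of zero indicates no response. The underlying assay used 384-well plates: drugs were placed by an Echo 550 acoustic dispenser at five concentrations spanning a 10,000-fold range, 1,500 ovarian cancer or normal ovarian cells were added per well, and cells were kept 3 days at 37°C, 5% CO2. Viability was then measured with CellTiter-Glo luminescence on a PHERAstar FS.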

[2] = tested on: HOSE1C
Summary of the method: as §1

[3] = tested on: JHOS2
Summary of the method: as §1

[4] = tested on: OVCAR8
Summary of the method: as §1

[5] = tested on: OVCAR5
Summary of the method: as §1

[6] = tested on: OV90
Summary of the method: as §1

[7] = tested on: Ovsaho
Summary of the method: as §1

[8] = tested on: CAOV3
Summary of the method: as §1

[9] = tested on: HOSE2C
Summary of the method: as §1

[10] = tested on: Kuramochi
Summary of the method: as §1

[11] = tested on: COV362
Summary of the method: as §1

[12] = tested on: COV318
Summary of the method: as §1

FC(F)c1nc2ccccc2n1-c1nc(N2CCOCC2)nc(N2CCOCC2)n1 [ZSTK474]
drug sensitivity score [1]: 7.7 | drug sensitivity score [2]: 8.8 | drug sensitivity score [3]: 4 | drug sensitivity score [4]: 8.9 | drug sensitivity score [5]: 11 | drug sensitivity score [6]: 5.7 | drug sensitivity score [7]: 10.6 | drug sensitivity score [8]: 8 | drug sensitivity score [9]: 10.6 | drug sensitivity score [10]: 17.4 | drug sensitivity score [11]: 4.4 | drug sensitivity score [12]: 7.8
